Activity calls are given as the source filed them.
Experiments:
[1] = target: T1, Ubiquitin-conjugating enzyme E2 N (Homo sapiens, UniProt P61088); format: functional;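 further: Dose-response confirmation in a TR-FRET assay detecting UBC13-driven polyubiquitin chain formation, inhibition measured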
T1 sequence (P61088 whole entry): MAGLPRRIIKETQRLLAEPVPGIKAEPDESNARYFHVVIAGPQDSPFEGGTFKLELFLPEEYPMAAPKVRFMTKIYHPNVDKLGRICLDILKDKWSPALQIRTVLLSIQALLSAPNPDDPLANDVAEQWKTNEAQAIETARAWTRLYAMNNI

INS1 = assay: beta cell apoptosis inhibitors, cytokine rescue, dose response, luminescence, retest (AID 449756); format: functional, cell-based; settings: Rattus norvegicus;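 further: cell death triggered by IL-1 beta plus TNF-alpha plus IFN-gamma mixture; protective hits raise ATP signal compared with cytokine alone wells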
[2] = growth suppression of beta-catenin-knockout colon cells, dose response, cell-based, HCT116, human colon tumor (AID 1045); format: functional;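 further: HCT116 colon tumor cells with beta catenin knocked out; cells exposed to compound for 60 hours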
[3] = growth suppression of PTEN-null colon cells, dose response, cell-based, HCT116 PTEN knockout (AID 1047); format: functional;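 further: HCT116 colon tumor cells with PTEN knocked out; cells exposed to compound for 60 hours before readout; potency for loss of cell viability measured by luminescence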
Cytochrome P450 2C9 = Cytochrome P450 2C9 (Homo sapiens, UniProt P11712)
Cytochrome P450 3A4 = Cytochrome P450 3A4 (Homo sapiens, UniProt P08684);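 further: CYP3A4 tested as one member of a cytochrome P450 panel screen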
cells [4] = format: functional, cell-based
cells [5] = format: functional, cell-based; remark: listed apart in the source
[6] = Luminescence Cell-Based Dose Retest to Confirm Inhibitors of Cancer Stem Cells. [Related pubchem assays (depositor defined):AID2717, AID2721]; format: functional; settings: Homo sapiens
Protein RecA = target: T2, Protein RecA (Mycobacterium tuberculosis, UniProt P9WHJ3); assay: Fluorescence Cell-Free Homogeneous Dose Retest to Identify Inhibitors of RecA-Intein Splicing Activity. [Related pubchem assays (depositor defined):AID2097, AID2223, AID489010, AID492950]; format: functional
T2 sequence (P9WHJ3 whole entry): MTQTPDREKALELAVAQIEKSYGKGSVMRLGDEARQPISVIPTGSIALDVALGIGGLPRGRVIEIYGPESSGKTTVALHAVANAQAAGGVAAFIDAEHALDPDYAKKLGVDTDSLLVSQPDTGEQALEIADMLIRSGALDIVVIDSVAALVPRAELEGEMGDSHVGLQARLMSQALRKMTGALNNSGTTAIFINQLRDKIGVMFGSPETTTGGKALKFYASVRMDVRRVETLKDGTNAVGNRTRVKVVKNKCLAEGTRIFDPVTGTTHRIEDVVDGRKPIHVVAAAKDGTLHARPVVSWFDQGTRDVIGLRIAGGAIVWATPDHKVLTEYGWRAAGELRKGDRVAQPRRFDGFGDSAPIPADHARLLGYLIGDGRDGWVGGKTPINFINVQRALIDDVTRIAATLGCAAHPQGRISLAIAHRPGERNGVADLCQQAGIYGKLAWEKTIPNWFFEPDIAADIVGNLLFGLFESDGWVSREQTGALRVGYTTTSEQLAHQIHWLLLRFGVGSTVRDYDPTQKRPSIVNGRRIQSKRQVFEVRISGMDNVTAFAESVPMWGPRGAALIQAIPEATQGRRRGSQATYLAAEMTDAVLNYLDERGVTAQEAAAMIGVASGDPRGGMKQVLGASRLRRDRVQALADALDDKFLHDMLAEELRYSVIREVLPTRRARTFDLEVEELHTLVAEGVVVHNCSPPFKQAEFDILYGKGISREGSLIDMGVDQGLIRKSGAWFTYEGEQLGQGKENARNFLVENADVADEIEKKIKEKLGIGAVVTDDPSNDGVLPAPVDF

[7] = target: T3, Replicative DNA helicase DnaB (Mycobacterium tuberculosis, UniProt P9WMR3); assay: DnaB intein splicing inhibitors, dose response, biochemical, cell-free fluorescence (AID 449749); format: functional
T3 sequence (P9WMR3 whole entry): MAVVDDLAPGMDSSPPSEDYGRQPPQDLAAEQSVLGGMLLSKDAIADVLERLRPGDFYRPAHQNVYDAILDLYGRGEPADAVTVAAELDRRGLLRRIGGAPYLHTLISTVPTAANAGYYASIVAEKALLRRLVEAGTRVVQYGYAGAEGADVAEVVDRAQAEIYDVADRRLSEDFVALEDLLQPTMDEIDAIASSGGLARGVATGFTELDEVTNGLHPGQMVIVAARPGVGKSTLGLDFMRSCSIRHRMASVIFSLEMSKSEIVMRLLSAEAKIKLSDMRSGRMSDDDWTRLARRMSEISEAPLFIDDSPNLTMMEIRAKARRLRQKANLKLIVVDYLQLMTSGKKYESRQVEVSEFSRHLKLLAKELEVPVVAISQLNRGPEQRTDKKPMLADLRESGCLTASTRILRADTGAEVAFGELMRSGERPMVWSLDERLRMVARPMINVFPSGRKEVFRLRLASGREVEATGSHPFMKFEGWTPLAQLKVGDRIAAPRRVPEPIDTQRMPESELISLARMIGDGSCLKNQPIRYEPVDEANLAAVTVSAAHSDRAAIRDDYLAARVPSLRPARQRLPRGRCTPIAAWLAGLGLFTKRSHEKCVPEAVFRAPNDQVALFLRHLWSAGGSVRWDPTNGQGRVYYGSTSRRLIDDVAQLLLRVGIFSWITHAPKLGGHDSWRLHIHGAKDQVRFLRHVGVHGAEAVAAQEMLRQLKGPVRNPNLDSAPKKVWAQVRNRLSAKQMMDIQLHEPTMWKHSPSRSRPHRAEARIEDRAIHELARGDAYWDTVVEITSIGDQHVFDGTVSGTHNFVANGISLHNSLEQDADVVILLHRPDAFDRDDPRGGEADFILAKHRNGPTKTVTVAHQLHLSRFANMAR

[8] = target: T4, Heat shock factor protein 1 (Mus musculus, UniProt P38532); assay: HSF1 potentiators in luciferase reporter cells, confirmation, cell-based, NIH3T3, luminescence, dose retest (AID 435004); format: functional;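 further: stress induced by proteasome inhibitor MG132 added 30 min after compound; luciferase reporter driven by HSF1 response element in NIH3T3 cells; actives raise luminescence as potentiators of the MG132 stress response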
T4 sequence (P38532 whole entry): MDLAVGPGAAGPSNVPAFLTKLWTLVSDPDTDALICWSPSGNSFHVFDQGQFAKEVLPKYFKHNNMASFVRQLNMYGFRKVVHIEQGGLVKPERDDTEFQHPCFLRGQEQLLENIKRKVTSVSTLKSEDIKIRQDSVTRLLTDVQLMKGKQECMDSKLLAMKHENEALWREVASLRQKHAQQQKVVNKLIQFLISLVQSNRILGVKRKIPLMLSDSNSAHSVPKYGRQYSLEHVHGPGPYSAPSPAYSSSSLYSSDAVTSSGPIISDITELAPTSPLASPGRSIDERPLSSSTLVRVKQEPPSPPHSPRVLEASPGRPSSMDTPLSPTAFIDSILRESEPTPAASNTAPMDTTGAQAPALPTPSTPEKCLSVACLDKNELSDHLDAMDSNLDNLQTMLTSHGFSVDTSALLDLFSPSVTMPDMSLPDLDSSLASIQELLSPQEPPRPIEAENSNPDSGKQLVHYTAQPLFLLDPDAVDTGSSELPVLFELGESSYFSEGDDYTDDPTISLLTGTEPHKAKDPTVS

[9] = NIH-3T3 fibroblast cytotoxicity, dose response, cytotoxicity control, cell-based, fluorescence, Alamar Blue, secondary assay (AID 2327); format: functional;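 further: NIH-3T3 mouse fibroblasts cultured with fluconazole at 8 µg/mL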
[10] = target: Heat shock protein HSP 90-alpha (Homo sapiens, UniProt P07900); format: functional, organism-based
[11] = C. albicans growth with fluconazole, confirmation, fluorescence, retest (AID 2467); format: functional, cell-based
[12] = inhibitors of intracellular T. cruzi replication, confirmation, NIH3T3 host cells, beta-gal luminescence (AID 2044); format: functional, cell-based;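 further: intracellular parasites grown in NIH/3T3 mouse fibroblasts as host cells; luminescent beta-galactosidase reporter signal from transgenic T. cruzi replicating inside host cells; inhibitors lower the luminescence signal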
[13] = cytotoxicity toward NIH3T3 fibroblasts, dose response, counter-screen, cell-based, ATP luminescence, mouse fibroblasts (AID 2010); format: functional;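 further: cells exposed to compound for about 90 hours before reading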
Cytochrome P450 1A2 = target: T5, Cytochrome P450 1A2 (Homo sapiens, UniProt P05177);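 further: PubChem cytochrome P450 panel assay, CYP1A2 panel member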
T5 sequence (P05177 whole entry): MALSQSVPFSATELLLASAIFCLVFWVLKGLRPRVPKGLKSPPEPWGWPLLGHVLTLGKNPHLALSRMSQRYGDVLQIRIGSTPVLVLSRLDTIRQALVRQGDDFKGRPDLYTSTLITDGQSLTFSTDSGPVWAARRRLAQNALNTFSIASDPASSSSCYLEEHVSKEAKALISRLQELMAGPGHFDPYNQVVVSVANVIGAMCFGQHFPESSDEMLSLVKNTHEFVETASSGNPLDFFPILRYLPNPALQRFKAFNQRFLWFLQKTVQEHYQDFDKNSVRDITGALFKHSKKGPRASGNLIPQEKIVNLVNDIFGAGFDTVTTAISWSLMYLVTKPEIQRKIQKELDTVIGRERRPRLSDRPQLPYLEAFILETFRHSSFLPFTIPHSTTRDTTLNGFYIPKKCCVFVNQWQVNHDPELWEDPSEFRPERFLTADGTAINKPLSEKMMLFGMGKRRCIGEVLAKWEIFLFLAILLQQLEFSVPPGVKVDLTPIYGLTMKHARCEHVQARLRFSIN

Cytochrome P450 2D6 = Cytochrome P450 2D6 (Homo sapiens, UniProt P10635);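 further: CYP2D6 member of a cytochrome P450 panel assay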
Cytochrome P450 2C19 = Cytochrome P450 2C19 (Homo sapiens, UniProt P33261); assay: Cytochrome panel assay with activity outcomes. Panel member name: p450-cyp2c19 Compounds with AC50 equal or less than 10 uM are considered active; format: functional; settings: read-out: AC50
Chain of Cytochrome P450 2C19 (P33261 whole entry): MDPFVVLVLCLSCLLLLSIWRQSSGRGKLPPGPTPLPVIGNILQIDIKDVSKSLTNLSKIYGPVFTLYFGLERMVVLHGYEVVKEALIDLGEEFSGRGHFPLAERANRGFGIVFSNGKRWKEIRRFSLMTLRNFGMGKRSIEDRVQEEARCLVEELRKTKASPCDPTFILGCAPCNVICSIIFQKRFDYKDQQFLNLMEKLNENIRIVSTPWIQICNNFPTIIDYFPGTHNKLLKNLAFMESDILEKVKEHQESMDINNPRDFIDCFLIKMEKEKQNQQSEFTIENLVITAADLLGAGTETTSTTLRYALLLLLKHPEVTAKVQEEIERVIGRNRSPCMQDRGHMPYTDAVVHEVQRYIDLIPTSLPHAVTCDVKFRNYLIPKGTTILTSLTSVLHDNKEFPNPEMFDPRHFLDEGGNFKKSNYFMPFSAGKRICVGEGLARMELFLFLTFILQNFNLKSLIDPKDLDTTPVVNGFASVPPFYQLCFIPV

Chain of Cytochrome P450 2C9 (P11712 whole entry): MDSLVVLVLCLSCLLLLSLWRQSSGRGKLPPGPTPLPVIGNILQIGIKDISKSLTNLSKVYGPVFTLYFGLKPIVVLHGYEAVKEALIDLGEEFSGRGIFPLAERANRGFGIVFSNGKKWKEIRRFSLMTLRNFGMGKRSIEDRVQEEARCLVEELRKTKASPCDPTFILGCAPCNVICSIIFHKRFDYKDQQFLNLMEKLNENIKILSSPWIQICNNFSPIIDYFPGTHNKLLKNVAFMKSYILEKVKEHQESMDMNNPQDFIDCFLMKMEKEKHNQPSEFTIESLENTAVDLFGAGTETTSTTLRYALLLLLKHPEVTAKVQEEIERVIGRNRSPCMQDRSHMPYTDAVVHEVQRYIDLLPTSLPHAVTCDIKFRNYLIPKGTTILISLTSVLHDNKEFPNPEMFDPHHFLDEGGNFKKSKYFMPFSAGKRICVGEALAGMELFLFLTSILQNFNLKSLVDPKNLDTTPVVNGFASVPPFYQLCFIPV
Chain of Cytochrome P450 3A4 (P08684 whole entry): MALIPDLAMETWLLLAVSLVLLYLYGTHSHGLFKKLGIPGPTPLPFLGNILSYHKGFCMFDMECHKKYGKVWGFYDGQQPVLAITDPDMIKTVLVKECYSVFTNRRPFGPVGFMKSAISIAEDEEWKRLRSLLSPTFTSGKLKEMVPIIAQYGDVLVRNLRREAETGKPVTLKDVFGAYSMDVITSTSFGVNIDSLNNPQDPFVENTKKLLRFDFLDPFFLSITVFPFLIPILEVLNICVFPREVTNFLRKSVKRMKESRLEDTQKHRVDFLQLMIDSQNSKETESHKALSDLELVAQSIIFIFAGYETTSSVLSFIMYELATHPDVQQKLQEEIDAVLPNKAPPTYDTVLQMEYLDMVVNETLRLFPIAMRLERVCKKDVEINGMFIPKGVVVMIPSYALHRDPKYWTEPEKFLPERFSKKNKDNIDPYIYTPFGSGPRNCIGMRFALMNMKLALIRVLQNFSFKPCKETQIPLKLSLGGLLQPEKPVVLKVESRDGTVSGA
Chain of Cytochrome P450 2D6 (P10635 whole entry): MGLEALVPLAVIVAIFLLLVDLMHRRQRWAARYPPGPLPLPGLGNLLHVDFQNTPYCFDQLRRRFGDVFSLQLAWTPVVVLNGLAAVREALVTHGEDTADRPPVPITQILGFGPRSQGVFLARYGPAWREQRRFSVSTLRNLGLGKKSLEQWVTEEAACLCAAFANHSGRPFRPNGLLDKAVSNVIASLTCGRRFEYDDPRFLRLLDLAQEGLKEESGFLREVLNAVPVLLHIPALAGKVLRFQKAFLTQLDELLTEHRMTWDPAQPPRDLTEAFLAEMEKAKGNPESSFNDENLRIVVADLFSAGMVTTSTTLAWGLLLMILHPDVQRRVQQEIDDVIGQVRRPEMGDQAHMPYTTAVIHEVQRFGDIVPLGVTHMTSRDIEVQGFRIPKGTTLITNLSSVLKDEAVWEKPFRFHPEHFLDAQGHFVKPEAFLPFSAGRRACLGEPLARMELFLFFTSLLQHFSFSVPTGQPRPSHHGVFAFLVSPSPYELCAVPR

COc1ccc(C)c2sc(N(CCCN(C)C)C(=O)c3ccc(S(=O)(=O)N(C)C)cc3)nc12
IC50 [1]: > 20 µM (inactive)

COC(=O)c1ccccc1S(=O)(=O)N1CCC(C(=O)N2CCC2)CC1
IC50 [1]: > 20 µM (inactive)

CC(C)OCCCN=C(S)N1CCC(C(=O)c2ccc(Cl)cc2)CC1
AC50 (INS1): 36.9 µM (active)

Cc1cccc(NS(=O)(=O)c2ccc3c(c2)Cc2cc(S(=O)(=O)Nc4cccc(C)c4C)ccc2-3)c1C
EC50 [2]: 10.2 µM (active)
EC50 [3]: 11 µM (active)

NC(S)=Nc1nc2ccccc2nc1O
IC50 [1]: > 20 µM (inactive)

COc1ccccc1CN1C(=O)c2ccncc2C1=O
AC50 (Cytochrome P450 2C9): inconclusive
AC50 (Cytochrome P450 3A4): 11.2 µM (inconclusive)

CC(=O)Nc1cc2c(cc1Br)OCCO2
EC50 (cells [4]): > 350 µM (not active)
EC50 (cells [5]): > 350 µM (not active)

COc1ccc(CCNc2ccc(C(CC(N)=O)NC(=O)c3ccc(Br)cc3)cc2[N+](=O)[O-])cc1 (stereo not given)
AC50 [6]: 5.51 µM (active)
AC50 (INS1): 12.9 µM (active)

Cc1cc(C(=O)c2ccc(C(C)(C)C)cc2)c(NC(=O)CCl)s1
EC50 (Protein RecA): 2.97 µM (active)
AC50 [7]: 7.58 µM (active)
EC50 [2]: 8.47 µM (active)
EC50 [8]: 7.73 µM (active)
EC50 [3]: 9.12 µM (active)

COc1ccc2[nH]c(-c3cccc(N)c3)nc2c1
EC50 (cells [4]): > 350 µM (not active)
EC50 (cells [5]): 6.92 µM (active)

CCOCCCNC(=O)C1CCN(S(=O)(=O)N2CC(C)CC(C)C2)CC1 (stereo not given)
AC50 (Cytochrome P450 2C9): inconclusive
AC50 (Cytochrome P450 3A4): 15.8 µM (inconclusive)

C=C(C(=O)c1ccccc1)C(C)CC(=O)c1ccccc1 (stereo not given)
EC50 [2]: 4.74 µM (active)
EC50 [3]: 5.17 µM (active)

CC(C(=O)NC1CCCC1)N(C(=O)c1snc(C(N)=O)c1N)c1ccc2c(c1)OCCO2 (stereo not given)
IC50 [1]: > 20 µM (inactive)

CN(C)C(=O)CSc1nc2ccccc2n1Cc1ccccc1
EC50 (cells [4]): > 350 µM (not active)
EC50 (cells [5]): > 350 µM (not active)

CCOc1ccc(C(=O)NC(=S)Nc2cccc(NC(=O)c3ccco3)c2)cc1[N+](=O)[O-]
EC50 (cells [4]): > 350 µM (not active)
EC50 (cells [5]): > 350 µM (not active)

O=C(O)/C=C/c1cnn(-c2ccccc2)c1
EC50 (cells [4]): > 350 µM (not active)
EC50 (cells [5]): 2.39 µM (active)

COc1ccc2c(c1[N+](=O)[O-])CCC/C2=N/OC(=O)c1ccccc1SC
AC50 (Cytochrome P450 2C9): inconclusive
AC50 (Cytochrome P450 3A4): 15.8 µM (inconclusive)

O=C(Nc1nc(-c2ccccn2)cs1)c1cc2ccccc2o1
EC50 [9]: 20.5 µM (active)
AC50 [10]: 4.49 µM (active)
EC50 [11]: 1.49 µM (active)
EC50 [12]: 1.46 µM (active)
EC50 [13]: 9.05 µM (active)

O=C(C[S+]([O-])c1cccc(C(F)(F)F)c1)Nc1ccccc1Cl (stereo not given)
AC50 (Cytochrome P450 1A2): 15.8 µM (inconclusive)
AC50 (Cytochrome P450 2C9): inconclusive

COC(=O)c1cc(=O)n(CCc2ccccc2F)/c(=N/c2ccc(F)c(Cl)c2)s1
AC50 (INS1): 8.13 µM (active)

O=C(N/N=C\c1ccc2c(c1)CCC2)c1ccccc1O
AC50 (Cytochrome P450 2C9): inconclusive
AC50 (Cytochrome P450 2D6): 5.01 µM (inconclusive)
AC50 (Cytochrome P450 2C19): 0.251 µM (inconclusive)

Cc1ccc(OCCCOc2cccc3cccnc23)cc1C
AC50 (Cytochrome P450 2C9): inconclusive
AC50 (Cytochrome P450 2D6): 17.8 µM (inconclusive)
AC50 (Cytochrome P450 3A4): 28.2 µM (inconclusive)

O=S(=O)(NC1CC2CCC1C2)c1ccc(Cl)cc1 (stereo not given)
AC50 [10]: 0.538 µM (active)

CC[C@@H](C)[C@@H]1CN([C@@H](C)CN2CCC[C@H]2CN2C(N)=NC[C@@H]2Cc2ccccc2)C(=N)N1CCc1ccc(Cl)c(Cl)c1
IC50 [1]: > 20 µM (inactive)

CN(C)S(=O)(=O)c1ccc(NC(=O)c2cc(F)c(F)cc2Cl)cc1
AC50 (Cytochrome P450 2C9): inconclusive
AC50 (Cytochrome P450 2C19): 17.8 µM (inconclusive)

Reference: ChEMBL document CHEMBL1201862, “PubChem BioAssay data set” (2004)
